Columns and labels:
Test in all cases: ITC
K1 LBD = target: T1, K1 LBD
T1 construct: source species and locus only in SI

C1 LBD = target: T2, C1 LBD
T2 construct: source species and locus only in SI
Source text: ITC on C1 LBD | The binding of L-lactate to the K1 and C1 LBDs

B9 LBD = target: T3, B9 LBD
T3 construct: source species and locus only in SI
Source text: ITC on B9 LBD | The binding of L-threonine to the B9 LBD

B6 LBD = target: T4, B6 LBD; design: species or system Catenibacterium mitsuokai
T4 construct: locus only in SI
Source text: ITC on B6 LBD | the binding of indole to the B6 LBD were confirmed by isothermal titration calorimetry

D8 LBD = target: T5, D8 LBD; details: membrane-distal module
T5 construct: D8-dm = residues 33-179, D8-pm = residues 153-280; source species and locus only in SI

J6 LBD = target: T6, J6 LBD
T6 construct: source species and locus only in SI
Source text: ITC on J6 LBD | ethylamine and methylamine to the J6 LBD was confirmed by ITC

For C[C@@H](O)C(=O)O [D-lactate], the Kd (K1 LBD) was 66.1 ± 10.7 µM.
For C[C@H](O)C(=O)O [L-lactate], the Kd (K1 LBD) was 16 ± 0.56 µM and the Kd (C1 LBD) was 26.8 ± 0.91 µM.
Work on C[C@@H](O)[C@H](N)C(=O)O [L-threonine] yielded a Kd (B9 LBD) of 1.3 ± 0.2 µM.
In the case of c1ccc2[nH]ccc2c1 [indole], the Kd (B6 LBD) is reported as 35.6 ± 7.02 µM.
Work on C=C(CC(=O)O)C(=O)O [itaconate] yielded a Kd (D8 LBD) of 9.6 ± 0.9 µM.
Work on O=C(O)/C=C\C(=O)O [maleate] yielded a Kd (D8 LBD) of 7.7 ± 0.41 µM.
CN [methylamine] gave a Kd (J6 LBD) of 242 ± 22 µM.
Compound O=C(O)CCC(=O)O [succinate] has a Kd (D8 LBD) of 1.7 ± 0.11 µM.

— publication PMC12415202, “Specificities of chemosensory receptors in the human gut microbiota” (Proceedings of the National Academy of Sciences of the …, 2025)
